Patent US20210283139A1, “BIFUNCTIONAL MOLECULES FOR TARGETING UCHL5” (AMPHISTA THERAPEUTICS LTD, priority 2018, published 2021)

Columns and labels:
Type in all cases: cell-based
Brd4 (L) [1] = molecular target: T1, Brd4 (L) (Homo sapiens, UniProt O60885); test: Concentration-dependent BET degradation, immunoblot, HEK293 cells; settings: 6 h treatment, 1 nM-10 μM, read-out: Dmax (%) maximum degradation observed
T1 construct: endogenous in cells; host or cells: HEK293, HeLa
Procedure: (§1) Cell culture. HeLa (CCL-2) and HEK293 (CRL-1573) cells were purchased from ATCC and cultured in DMEM medium (Gibco) supplemented with 10% FBS, 100 μg/mL penicillin/streptomycin and L-glutamine. Cells were grown at 37° C. and 5% CO2, and were kept no longer than 30 passages. All cell lines were routinely tested for mycoplasma contamination using MycoAlert kit from Lonza.
(§2) Immunoblotting. proteins were separated by SDS-PAGE on NuPage 4-12% Bis-Tris gels, followed by transfer to Amersham Protran 0.45 NC nitrocellulose membrane (GE Healthcare) using wet transfer. Membranes were blocked using 5% w/v milk in Tris-buffered saline (TBS) with 0.1% Tween-20. Blots were probed (overnight at 4° C.) using anti-Brd2 (Abcam ab139690, 1:2,000 dilution), anti-Brd3 (Abcam ab50818, 1:500 dilution), and anti-Brd4 (Abcam ab128874, 1:1,000 dilution) primary antibodies, as appropriate. The next day, blots were washed with TBST and incubated (1 hr at RT) with anti-Tubulin hFAB-rhodamine (BioRad, 12004166) primary antibody, and either anti-rabbit IRDye 800CW (Licor 1:10,000 dilution) or anti-mouse IRDye 800CW (Licor 1:10,000 dilution) secondary antibody. Blots were developed using a Bio-Rad ChemiDoc MP Imaging System, and band quantification was performed using Image Studio software (LiCor). Band intensities were normalized to the tubulin loading control and reported as % of the average 0.1% DMSO vehicle intensity. Degradation data was plotted and analysed using Prism (Graphpad, version 8).
(§3) HeLa (5×10^5) and HEK293 (1×10^6) cells were seeded in standard 6-well plates (2 mL medium) overnight before treatment with compounds at the desired concentration (1 nM-10 μM), with a final DMSO concentration of 0.1% v/v. After 6 h treatment time, cells were washed with DPBS (Gibco) and lysed using 85 μL RIPA buffer (Sigma-Aldrich) supplemented with cOmplete Mini EDTA-free protease inhibitor cocktail (Roche) and benzonase. Lysates were clarified by centrifugation (20,000g, 10 min, 4° C.) and the total protein content of the supernatant was quantified using a Bradford colorimetric assay. Samples were prepared using equal amounts of total protein and LDS sample buffer (Invitrogen.
(§4) Representative blots in FIG. 3 show depletion of Brd2, Brd3 and Brd4 protein levels following treatment with increasing concentrations of representative compounds. Band intensities were normalized to the β-tubulin loading control and reported as % of the average 0.1% DMSO vehicle intensity, with each point representing mean±SEM of two independent experiments (n=2). Degradation data was plotted and analysed using Prism (Graphpad, version 8)

Brd4 (S) [2] = molecular target: T2, Brd4 (S) (Homo sapiens, UniProt O60885); test: as above; settings: 6 h treatment, 1 nM-10 μM, read-out: Dmax (%) maximum degradation observed
T2 construct: endogenous in cells; host or cells: HEK293, HeLa
Procedure: as §1, §2, §3, §4

Brd4 (L) [3] = molecular target: T1, Brd4 (L); test: Concentration-dependent BET degradation, immunoblot, HeLa cells; settings: 6 h treatment, 1 nM-10 μM, read-out: Dmax (%) maximum degradation observed
Procedure: as §1, §2, §3, §4

Brd4 (S) [4] = molecular target: T2, Brd4 (S); test: as above; settings: 6 h treatment, 1 nM-10 μM, read-out: Dmax (%) maximum degradation observed
Procedure: as §1, §2, §3, §4

Brd4 [5] = molecular target: T3, Brd4 (Homo sapiens, UniProt O60885); test: Negative SAR: Brd4 immunoblot in HEK293 cells, active vs negative control; settings: HEK293, 1 μM, 6 h, three independent treatments
T3 construct: endogenous in cells; host or cells: HEK293, HAP1, MV4-11
Procedure: as §2
HEK293 (1×10^6) cells incubated with DMSO, 1 μM 05IB11 or 1 μM 05IB6 for 6 h with a final DMSO concentration of 0.1% v/v. Cells from three independent treatments (n=3) were lysed with RIPA buffer and immunoblotted for Brd4 and β-tubulin.

Brd2 [6] = molecular target: T4, Brd2 (Homo sapiens, UniProt P25440); test: Concentration-dependent BET degradation, immunoblot, HeLa cells; set-up: endogenous in cells; host or cells: HeLa; settings: Brd2, 6 h treatment, 1 nM-10 μM, read-out: Dmax (%) maximum degradation observed
Procedure: as §1, §2, §3, §4

Brd3 [7] = molecular target: T5, Brd3 (Homo sapiens, UniProt Q15059); test: as above; set-up: endogenous in cells; host or cells: HeLa; settings: Brd3, 6 h treatment, 1 nM-10 μM
Procedure: as §1, §2, §3, §4

Brd2 [8] = molecular target: T4, Brd2; test: Concentration-dependent BET degradation, immunoblot, HEK293 cells; set-up: endogenous in cells; host or cells: HEK293; settings: HEK293, Brd2, 6 h treatment, 1 nM-10 μM; read-out: Dmax (%) maximum degradation observed
Procedure: as §1, §2, §3, §4

Brd3 [9] = molecular target: T5, Brd3; test: as above; set-up: endogenous in cells; host or cells: HEK293; settings: HEK293, Brd3, 6 h treatment, 1 nM-10 μM
Procedure: as §1, §2, §3, §4

Brd4 [10] = molecular target: T3, Brd4; test: Proteasome dependency of Brd4 degradation in HEK293 cells (bortezomib pre-treatment); settings: HEK293, 1 μM, 6 h
Procedure: as §2
(§5) HEK293 (1×10^6) cells were seeded in standard 6-well plates (2 mL medium) overnight before pre-treatment with 10 μM bortezomib. After a 0.5 h pre-incubation time, cells were subsequently treated with vehicle, 1 μM MZ1 or 1 μM 05IB6, yielding a final overall DMSO concentration of 0.2% v/v. After 6 h incubation, cells were washed with DPBS (Gibco) and lysed using 85 μL RIPA buffer (Sigma-Aldrich) supplemented with cOmplete Mini EDTA-free protease inhibitor cocktail (Roche) and benzonase. Lysates were clarified by centrifugation (20,000 g, 10 min, 4° C.) and the total protein content of the supernatant was quantified using a Bradford colorimetric assay. Samples were prepared using equal amounts of total protein and LDS sample buffer (Invitrogen).

Brd4 [11] = molecular target: T3, Brd4; test: Mechanistic evaluation of Brd4 degradation in HEK293 cells (degrasyn or I-BET726 pre-treatment); settings: 6 h
Procedure: as §2
as §5, with “with inhibitors (5” for “with 10”, “μM degrasyn or 1 μM I-BET726).” for “μM bortezomib.”, “vehicle, 0.1” for “vehicle, 1”, “or 0.1” for “or 1”, “μM 05IB9,” for “μM 05IB6,”

Brd4 [12] = molecular target: T3, Brd4; test: Mechanistic evaluation of Brd4 degradation in HAP1 cells (bortezomib, degrasyn or I-BET726 pre-treatment); settings: 6 h
Procedure: as §2
as §5, with “HAP1 (1×10^6)” for “HEK293 (1×10^6)”, “with inhibitors (10” for “with 10”, “μM bortezomib, 5 μM degrasyn or 1 μM I-BET726).” for “μM bortezomib.”, “vehicle, 0.1” for “vehicle, 1”, “or 0.1” for “or 1”, “μM 05IB9,” for “μM 05IB6,”
Representative blots from HAP1 lysates in FIG. 9 show depletion of Brd4 protein levels following 6 h treatment with 0.1 μM 05IB9 or MZ1, in the presence and absence of 5 μM degrasyn and 10 μM bortezomib. Brd4 band intensities were normalized to β-tubulin loading control and reported in FIG. 9B as % of the average 0.1% DMSO vehicle intensity. Each bar is mean±SEM of three independent experiments performed in duplicate (n=3). […] Furthermore, excess […] competes with 05IB9, resulting in reduced degradation of Brd4.

[13] = read-out: Dmax (%) maximum degradation observed

T5 sequence (Q15059 whole entry): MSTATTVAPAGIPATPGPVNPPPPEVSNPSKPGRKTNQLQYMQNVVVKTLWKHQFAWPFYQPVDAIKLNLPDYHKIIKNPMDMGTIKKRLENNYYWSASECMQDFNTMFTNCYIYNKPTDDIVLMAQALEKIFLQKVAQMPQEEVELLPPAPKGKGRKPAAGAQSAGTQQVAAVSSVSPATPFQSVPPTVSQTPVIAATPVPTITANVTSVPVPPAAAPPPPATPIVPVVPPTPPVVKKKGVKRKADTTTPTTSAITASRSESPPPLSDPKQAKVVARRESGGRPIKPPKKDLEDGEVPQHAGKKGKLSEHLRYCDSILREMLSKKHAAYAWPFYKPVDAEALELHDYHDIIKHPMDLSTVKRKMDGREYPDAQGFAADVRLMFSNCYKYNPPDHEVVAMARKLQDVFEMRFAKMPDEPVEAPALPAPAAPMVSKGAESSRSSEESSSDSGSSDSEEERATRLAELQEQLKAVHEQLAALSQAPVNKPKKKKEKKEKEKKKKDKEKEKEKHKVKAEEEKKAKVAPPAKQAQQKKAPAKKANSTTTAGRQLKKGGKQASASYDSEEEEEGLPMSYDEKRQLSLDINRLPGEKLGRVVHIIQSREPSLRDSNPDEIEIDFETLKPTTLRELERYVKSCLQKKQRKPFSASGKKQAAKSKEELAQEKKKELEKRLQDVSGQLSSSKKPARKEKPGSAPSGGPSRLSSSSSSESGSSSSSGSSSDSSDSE
T4 sequence (P25440 whole entry): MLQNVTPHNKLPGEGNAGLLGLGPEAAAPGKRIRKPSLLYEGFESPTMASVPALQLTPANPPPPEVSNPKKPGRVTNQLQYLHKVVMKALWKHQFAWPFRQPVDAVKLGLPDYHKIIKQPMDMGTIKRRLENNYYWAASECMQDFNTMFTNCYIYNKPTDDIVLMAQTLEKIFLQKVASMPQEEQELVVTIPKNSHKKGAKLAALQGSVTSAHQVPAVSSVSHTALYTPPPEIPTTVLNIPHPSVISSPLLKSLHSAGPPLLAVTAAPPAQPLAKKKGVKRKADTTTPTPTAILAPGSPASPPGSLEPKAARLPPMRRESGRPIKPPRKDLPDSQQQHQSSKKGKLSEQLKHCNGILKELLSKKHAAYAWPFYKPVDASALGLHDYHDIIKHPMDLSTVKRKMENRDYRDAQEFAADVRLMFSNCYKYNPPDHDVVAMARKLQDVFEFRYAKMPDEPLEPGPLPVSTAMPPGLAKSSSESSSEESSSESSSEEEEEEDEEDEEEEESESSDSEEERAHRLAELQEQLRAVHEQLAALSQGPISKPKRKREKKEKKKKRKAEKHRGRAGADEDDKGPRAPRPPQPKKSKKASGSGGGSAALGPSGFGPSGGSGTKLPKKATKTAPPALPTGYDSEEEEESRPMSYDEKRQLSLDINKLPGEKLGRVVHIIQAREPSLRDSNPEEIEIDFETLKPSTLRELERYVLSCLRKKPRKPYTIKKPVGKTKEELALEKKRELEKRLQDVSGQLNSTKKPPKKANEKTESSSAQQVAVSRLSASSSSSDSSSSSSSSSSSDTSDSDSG

SMILES	Dmax (Brd4 (L) [1])	Dmax (Brd4 (S) [2])	Dmax (Brd4 (L) [3])	Dmax (Brd4 (S) [4])	Brd4 levels (Brd4 [5])	Dmax (Brd2 [6])	DC50 (Brd3 [7])	Dmax (Brd3 [7]; [13])	Dmax (Brd2 [8])	DC50 (Brd3 [9])	Dmax (Brd3 [9]; [13])	Brd4 protein levels (Brd4 [10])	Brd4 degradation in the presence of degrasyn or I-BET726 (Brd4 [11]; HEK293, 0.1 μM compound, 0.5 h pre-treatment with 5 μM degrasyn or 1 μM I-BET726)	Brd4 protein levels (Brd4 [11]; HEK293, 0.1 μM)	Brd4 degradation in the presence of bortezomib or degrasyn (Brd4 [12]; HAP1, 0.1 μM compound, 0.5 h pre-treatment with 10 μM bortezomib or 5 μM degrasyn)	Brd4 protein levels (Brd4 [12]; HAP1, 0.1 μM)
CCCC(NC(=O)/C=C/c1cccc(Br)n1)c1ccc(OCCOCCOCCOCCOCCOCCOCCNC(=O)c2ccc(-c3ccc4c(c3)[C@H](Nc3ccc(Cl)cc3)C[C@H](C)N4C(C)=O)cc2)cc1 (stereo partly shown) [Example 05IB11]	≤ 25%	26 to 50%	≤ 25%	≤ 25%	minimal depletion	≤ 25%	0.051 to 0.5 µM	26 to 50%	≤ 25%	≤ 0.05 µM	≤ 25%					
Cc1ncsc1-c1ccc(CNC(=O)[C@@H]2C[C@@H](O)CN2C(=O)[C@@H](NC(=O)COCCOCCOCCNC(=O)C[C@@H]2N=C(c3ccc(Cl)cc3)c3c(sc(C)c3C)-n3c(C)nnc32)C(C)(C)C)cc1 [MZ1, reference compound]												depletion	only blocked by I-BET726	depletion	only blocked by bortezomib	depletion
